This note sets out measurements from PubChem BioAssay AID1159559 (GlaxoSmithKline (GSK), 2015).

What is called IC50 is the concentration needed to halve the response being measured.

This test has as its system T. cruzi Tulahuen in NIH-3T3, beta-gal fluorescence, 4 d. The experiment in a line: T. cruzi intracellular growth inhibition, cell-based (AID 1159559).

Calls of active or inactive are those of the source.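 Rule for the calls: active = compounds whose IC50 against parasite growth in infected mouse cells is below 50000 nM; inactive = the rest.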

`COc1ccc(S(=O)(=O)NCc2ccc(-c3ccc(CN(C)CCO)cc3)cc2)cc1`: the IC50 is 40 nM.

On to `O=C(Nc1cccc(Cl)c1)N1CCCCC1c1cccnc1` (configuration not stated), for which the IC50 is 160 nM.

Consider `O=C(Nc1ccc(-c2nc3ccccc3c(=O)[nH]2)cc1)c1cccs1`, for which the IC50 was 3200 nM.

`COCCn1c(-c2ccc3c(c2)OCO3)cnc1NCc1ccccc1OC`: the IC50 was 7900 nM.

In the case of `c1ccc(-c2nc(NC3CCCC3)c3ccccc3n2)nc1`, the IC50 is 2000 nM.

For the compound `Cc1c(Nc2cc(C3CC3)[nH]n2)ccc(C#N)c1Cl`, the IC50 is 2500 nM.

Take `Cc1sc(C)c(C(F)(F)F)c1CNCCCNc1cc(=O)c2ccccc2[nH]1`: the IC50 was 790 nM.

For the compound `CC1(C)CCC(=Cc2ccc(Cl)cc2)CC1(O)Cn1ccnc1` (configuration not stated), the IC50 is 6.3 nM.

On to `O=C(NCCc1cccnc1)c1csc(-c2ccccc2)n1`, for which the IC50 is 250 nM.

For the compound `COc1cccc(Nc2cc(C)nc(-c3ccccn3)n2)c1`, the IC50 is 3200 nM.

Regarding `O=C(CN1CCN(S(=O)(=O)c2cccc([N+](=O)[O-])c2)CC1)Nc1ccc(Oc2ccccc2)cc1`, the concentration for half-maximal inhibition (IC50) was 2500 nM.

With `O=C(NCCc1nc(-c2ccc(F)c(F)c2)n[nH]1)C1CCCCC1`, the half-inhibitory concentration (IC50) was 2000 nM.

In the case of `Cc1ccc(C)c(-n2nnnc2Sc2nc([N+](=O)[O-])nn2C)c1`, the IC50 is 500 nM.

On to `Cc1cc2cc(CNc3ccc4c(c3)OCO4)c(=O)n(CCO)c2cc1C`, for which the concentration for half-maximal inhibition (IC50) was 630 nM.

Turning to `O=C1CN(C2CCCc3c(OCc4ccncc4)cccc32)C(=O)N1C1CCCCC1` (configuration not stated), the half-inhibitory concentration (IC50) was 250 nM.

`COc1cc(OC)cc(C(NS(=O)(=O)c2ccc(Cl)c(C(F)(F)F)c2)c2nccn2C)c1` (configuration not stated): the IC50 was 4000 nM.

As to `CCN(CC)S(=O)(=O)c1ccc(OC)c(NC(=O)c2ccc([N+](=O)[O-])s2)c1`, the IC50 is 250 nM.

As to `COCCn1cnc2cc(NC(=O)C3CCCCC3)cc(C(=O)N3CCc4sccc4C3)c21`, the IC50 was 20000 nM.

For `CN(C(=O)Nc1ccc2c(c1)CCN(C1CCC1)CC2)c1ccc(C#N)cc1`, the IC50 is 2000 nM.

Consider `Cc1ccc(S(=O)(=O)Cn2nnnc2C(c2cccnc2)N2CCN(c3ccccc3)CC2)cc1` (configuration not stated), for which the IC50 was 500 nM.

For `CCN(Cc1nc2ccc(C(=O)N3CCN(c4ncccn4)CC3)cc2[nH]1)C1CCCc2cccnc21` (configuration not stated), the IC50 is 1300 nM.

Regarding `CN(Cc1ccccc1)Cc1nnnn1C1CCN(Cc2ccc(-n3ccnc3)cc2)CC1`, the IC50 is 400 nM.

For the compound `O=C(Nc1nc2cc(Cl)ccc2o1)c1cccc(Cl)c1`, the IC50 was 790 nM.

Take `CCOc1ccccc1C(=O)Nc1nnc(-c2ccc3c(c2)OCO3)s1`: the half-inhibitory concentration (IC50) was 630 nM.

For `Cc1cc(NC(=O)C2CC2)ccc1OC1CCN(Cc2ccco2)CC1`, the IC50 was 16000 nM.

As to `CC(C)(C)Nc1nc(-c2ccccn2)nc2ccccc12`, the IC50 was 1300 nM.

As for `CC(C)(C)C(O)(CCc1ccc(Cl)cc1)Cn1cncn1` (configuration not stated), the IC50 was 130 nM.

On to `CCN(CC)c1nc(Nc2ccncc2)nc2ccccc12`, for which the IC50 is 130 nM.

`Cc1[nH]c2ccccc2c(=O)c1Cc1c(C)[nH]c2ccccc2c1=O`: the IC50 is 2500 nM.

For the compound `COc1cc2c(cc1OC)[C@H]1[C@@H](C)c3ccc(OC)c(OC)c3CN1CC2`, the IC50 is 25000 nM.

In the case of `CS(=O)(=O)NC1CCC(Nc2ncc(Br)c(Nc3ccccc3C(N)=O)n2)CC1` (configuration not stated), the half-maximal inhibitory concentration (IC50) was 7900 nM.

Turning to `CC(C)(C)Nc1nc(Nc2ccc3c(c2)CS(=O)(=O)C3)nc2[nH]ccc12`, the 50% inhibitory concentration (IC50) was 1000 nM.

In the case of `CNc1cc(C)nc(C2CN(C(=O)c3n[nH]c4ccccc34)CCO2)c1` (configuration not stated), the IC50 is 1300 nM.

Take `Fc1ccc(Nc2nc(-c3ccccn3)cs2)cc1`: the IC50 is 2500 nM.

On to `O=C(NNC(=O)c1ccccn1)c1ccc(-c2ccccc2)cc1`, for which the IC50 was 1600 nM.

In the case of `O=c1cc(NCCCNCc2cc(C(F)(F)F)cs2)[nH]c2ccccc12`, the IC50 was 7900 nM.

For the compound `O=S(=O)(NCC(c1cccnc1)N1CCN(c2ccccc2F)CC1)c1ccc(F)cc1` (configuration not stated), the IC50 was 500 nM.

Consider `O=c1cc(NCCCNCc2c[nH]c3ccc(Br)cc23)[nH]c2ccccc12`, for which the IC50 was > 50000 nM (inactive).

For `Cc1cnc(Nc2cc(Cc3ccccc3)nc(NC3CCC(O)CC3)n2)s1` (configuration not stated), the IC50 is 130 nM.

In the case of `Cc1cc(C)n(-c2nc(NC(C)(C)C)nc(N3CCOCC3)n2)n1`, the IC50 is 5000 nM.

In the case of `O=C(Nc1ccc(C(F)(F)F)cc1)NC1(C(=O)NCc2ccco2)CCCCC1`, the IC50 was 7900 nM.

Consider `Cc1cc2ncn(-c3ccc([N+](=O)[O-])cc3C#N)c2cc1C`, for which the IC50 was 1300 nM.

As for `CC(C)n1c(-c2nonc2N)nc2cccc(OCCN3CCCC3)c21`, the half-inhibitory concentration (IC50) was 10000 nM.

Regarding `O=C(NCC(c1cccs1)N1CCOCC1)c1ccc([N+](=O)[O-])o1` (configuration not stated), the IC50 is 3200 nM.

Regarding `Cc1cc2cncn2c(C2CCCCN2C(=O)c2cccs2)n1` (configuration not stated), the IC50 is 25 nM.

With `COc1cccc(-c2cc(C(F)(F)F)nc(-n3ccc([N+](=O)[O-])n3)n2)c1`, the IC50 is 400 nM.

For `NC(=O)c1ccsc1NC(=O)c1ccc([N+](=O)[O-])s1`, the IC50 is 79 nM.

Regarding `O=C(Nc1cccc(F)c1)N1CCC(Oc2cccc(-c3cccnc3)c2)CC1`, the IC50 is 630 nM.

In the case of `O=C(NC(c1ccc(Cl)cc1)c1cnccn1)C1CCN(C(=O)Nc2cccc(C(F)(F)F)c2)CC1` (configuration not stated), the IC50 was 630 nM.

Take `COc1cccc(CN(C)Cc2nc(N)c3c(C)c(C)sc3n2)c1`: the IC50 is 6300 nM.

Turning to `COc1ccc(-c2cnc(NC(=O)c3ccc(F)cc3)n2C)cc1`, the IC50 is 2500 nM.

For `COc1ccc(C(=O)N2CCC(Nc3cccnc3)C2)c(OC)n1` (configuration not stated), the IC50 was 320 nM.

For `CC(C)(C)c1csc(NC(=O)c2ccc([N+](=O)[O-])s2)n1`, the IC50 was 160 nM.

`COc1ccc(S(=O)(=O)Nc2ccc(C(=O)Nc3nc(-c4ccccn4)cs3)cc2)cc1`: the IC50 was 790 nM.

Regarding `N#Cc1ccc(Br)cc1[N+](=O)[O-]`, the IC50 is 250 nM.

In the case of `Nc1nccc(-c2csc(Nc3ccc(Cl)cc3)n2)n1`, the IC50 was 1300 nM.

Take `CC(=Cc1ccccc1)CN1CCC(=O)N(Cc2cccnc2)CC1`: the half-maximal inhibitory concentration (IC50) was 250 nM.

On to `COc1ccc(S(=O)(=O)Nc2ccc(CN3CCN(C(=O)c4cccc(C#N)c4)CC3)cc2)cc1`, for which the IC50 is 1000 nM.

As to `CC(c1cc(Cl)cc(Cl)c1)N(C)c1ncc2c(N)nc(N)nc2n1` (configuration not stated), the IC50 was 63 nM.

Consider `O=C(c1cccc(Cl)c1Cl)N1CCn2c1nc(-c1ccncc1)cc2=O`, for which the IC50 was 160 nM.

Consider `Cn1ccnc1CN1CCc2[nH]cnc2C1c1ccccc1OCc1ccccc1` (configuration not stated), for which the IC50 is 40000 nM.

Regarding `Cc1nccn1C1CCCN(C(=O)c2cc3c(F)cccc3s2)C1` (configuration not stated), the IC50 is 630 nM.

For `CS(=O)(=O)c1ccc(Nc2nccc(-c3cnn4ncccc34)n2)cc1`, the 50% inhibitory concentration (IC50) is 2000 nM.

With `CC(=O)NCCNc1cc(-c2ccnc(Nc3cccc(Cl)c3)n2)ccn1`, the IC50 is 400 nM.

As to `COc1ccc(C(=O)Nc2ccc(NC(=O)CO)cc2)cc1`, the IC50 is > 50000 nM (inactive).

As for `CN(CC1CCCO1)S(=O)(=O)c1ccc(C(=O)Nc2nc(-c3ccccn3)cs2)cc1` (configuration not stated), the IC50 is 1600 nM.

For `O=C(Nc1ccccc1C(=O)Nc1ccccn1)c1ccco1`, the IC50 is > 50000 nM (inactive).

In the case of `C[C@@H](Oc1cc(-n2cnc3ccc(CC(O)CO)cc32)sc1C(N)=O)c1ccccc1Cl` (some centres not stated), the IC50 was 3200 nM.

On to `O=C(Cc1ccc2c(c1)CCC2)Nc1n[nH]c(-c2ccccn2)n1`, for which the IC50 is 10000 nM.

As to `O=C(CCc1ccc(-c2ccccc2)o1)N1CCN(c2ccc(O)cc2)CC1`, the IC50 is 3200 nM.

Turning to `COc1ccc2ncc(F)c(NC(=O)C3(O)CCC(NCc4ccc5c(c4)OCCO5)CC3)c2n1` (configuration not stated), the IC50 was 160 nM.

Take `COc1ccc2ncc(=O)n(CCN3CCC(NCc4ccc(-c5cccs5)cc4)CC3)c2n1`: the IC50 is 2000 nM.

Take `CCC(=O)N1N=C(c2ccc3c(c2)CCCC3)Sc2c1ncn2C(=O)CC`: the IC50 was 6300 nM.

On to `COc1cc(NC(=O)Nc2cccc(CNC(=O)OC3CCCCC3)c2)ccc1-c1cnco1`, for which the IC50 was 1000 nM.

As to `Nc1nc(-c2ccccn2)nc(-n2nc(-c3ccccc3)cc2N)n1`, the IC50 is 500 nM.

Turning to `OCC1CCCCN1c1cc(-c2ccccn2)nc(Nc2ccccc2)n1` (configuration not stated), the IC50 was 790 nM.

For `CN1C(=O)c2ccccc2Sc2ccc(NC(=O)NCc3ccco3)cc21`, the IC50 was 10000 nM.

Consider `COc1ccc(OC)c(S(=O)(=O)N(Cc2c(F)cccc2F)[C@@H]2CCN(C#N)C2)c1`, for which the IC50 is 6300 nM.

As for `CC(C)(C)CC(=O)NCCc1csc(-c2ccc(F)cc2)n1`, the concentration for half-maximal inhibition (IC50) was 1300 nM.

For the compound `Clc1cc(Br)ccc1OCCCCn1ccnc1`, the IC50 is 630 nM.

For the compound `C[C@@H](Oc1cc(-n2cnc3cc(N)ccc32)sc1C(N)=O)c1ccccc1Cl`, the IC50 is 1300 nM.

As for `O=C1OCc2ccc(Nc3nccc(-c4cnn5ncccc45)n3)cc21`, the IC50 is 25 nM.

With `Nc1nc(-c2ccccc2)cc(-c2nc3ncccc3[nH]2)n1`, the IC50 is 3200 nM.

Take `Cc1cccc(N2CCCN(Cc3c[nH]c4ccccc34)CC2)n1`: the IC50 was 320 nM.

In the case of `CCNc1cc(-c2ccccn2)nc(Nc2ccccc2)n1`, the IC50 was 790 nM.

For `Cc1ccc(NC(=O)c2ccnc(N3CCCC3)c2)cc1-c1ccsc1C(N)=O`, the IC50 is 13000 nM.

As for `O=[N+]([O-])c1ccc(C2=CC(c3ccccc3)=NCCN2)cc1`, the IC50 is 500 nM.

In the case of `Oc1cccnc1-c1n[nH]c(Cc2ccccc2)n1`, the IC50 was 6300 nM.

In the case of `CCOc1ccc(CC(=O)N2c3ccccc3CC2C(=O)NC)cc1` (configuration not stated), the IC50 was > 50000 nM (inactive).

Consider `O=c1[nH]ccc2ccc(-c3ccncc3)cc12`, for which the IC50 was 200 nM.

Turning to `CS(=O)(=O)c1ccc(Nc2nccc(Nc3n[nH]c4ccc(F)cc34)n2)c(F)c1`, the IC50 was 7900 nM.

Consider `Cc1nc(-c2ccncc2)ncc1C(C)NC(=O)c1ccc(Cl)s1` (configuration not stated), for which the IC50 was 25000 nM.

Consider `CNc1cncc(C2CCCN2C(=O)Cc2ccc3ccccc3c2)n1` (configuration not stated), for which the IC50 is 79 nM.

Consider `N#Cc1cc(N2CCCC2=O)ccc1Sc1ccccc1CO`, for which the IC50 is 250 nM.

Take `O=S(=O)(NCC(c1cccnc1)N1CCN(c2ccc(F)cc2)CC1)c1cccs1` (configuration not stated): the IC50 is 160 nM.

Turning to `CC(=O)Nc1ccc(CN2CCC(N3CC(c4ccccc4)(c4ccccc4)OCC3=O)CC2)cc1`, the IC50 was 13000 nM.

As for `CN(C)S(=O)(=O)c1ccc(-c2cnc(N)c(-c3nc4ccc(F)cc4[nH]3)c2)cc1`, the IC50 was 1300 nM.
